# Reference: the COVID Moonshot data (paper PMC7615835)
# Values joined by “and” are separate entries in the source; they are usually repeats but may differ in a detail not shown here. Equal entries are not always repeated.
# Biological target: SARS-CoV-2 Main Protease (SARS-CoV-2) (UniProt P0DTD1)
row,Compound,IC50
1,COc1ccc(CNCC2(C(=O)Nc3cncc4ccccc34)CCOc3ccc(Cl)cc32)cc1OCC(N)=O (stereo not given),11.5 µM
2,CNC(=O)CN1CC(C)(C(=O)Nc2cncc3cc(S(C)(=O)=O)ccc23)c2cc(Cl)ccc2S1(=O)=O (stereo not given),0.131 µM and 0.189 µM
3,O=C(c1cc(F)cc(F)c1)N1CCOc2cc(O)ccc2C1,> 99.5 µM
4,O=C(Cn1nnc2ccccc21)N(Cc1ccsc1)c1ccc(N2CCOCC2)cc1,11.6 µM
5,N#CC1(CS(=O)(=O)N2Cc3ccc(Cl)cc3[C@@H](C(=O)Nc3cncc4ccccc34)C2)CNC1 (stereo in doubt),1.62 µM
6,O=C(Nc1cnn2ccccc12)C1CCS(=O)(=O)c2ccc(Cl)cc21 (stereo not given),3.89 µM
7,C/C=C/C=C/C(=O)N1CC=C(c2c[nH]c3ncccc23)CC1,> 99.5 µM
8,N#CC1CN(S(=O)(=O)NCc2ccc(Cl)cc2CC(=O)Nc2cncc3ccccc23)C1,0.231 µM
9,O=C1NCC(C(=O)Nc2cnn3ccccc23)c2cc(Cl)ccc21 (stereo not given),7.09 µM
10,N#Cc1cccc(NC(=O)Nc2c[nH]c3ncccc23)c1,63.6 µM
11,Cc1ccncc1C(C(=O)NCCc1cccc(F)c1)N(C(=O)c1ccco1)c1ccc(C(C)(C)C)cc1 (stereo not given),0.112 µM
12,O=C(Cc1cncc2ccccc12)N1CCOc2ccc(Cl)cc21,6.05 µM
13,O=C(Nc1ccc(N(Cc2ccsc2)C(=O)Cn2nnc3ccccc32)cc1)C1CC1,3.99 µM
14,COC(=O)C(C)NC(=O)C(c1cccnc1)N(C(=O)c1cocn1)c1ccc(C(C)(C)C)cc1 (stereo not given),7.18 µM
15,COc1ncncc1C(C(=O)NCCc1cccc(F)c1)N(C(=O)c1cocn1)c1ccc(C(C)(C)C)cc1 (stereo not given),8.43 µM
16,CC1(C(=O)Nc2cncc3cccc(Cl)c23)CNS(=O)(=O)c2ccc(Cl)cc21 (stereo not given),1.87 µM
17,O=C(Cc1cc(Cl)cc(OC2CC(=O)N2)c1)Nc1cc(=O)[nH]c2ccccc12 (stereo not given),83.3 µM
18,COCCCNC(=O)C(c1cccnc1)N(C(=O)c1cocn1)c1ccc(C(C)(C)C)cc1 (stereo not given),8.79 µM
19,Cc1ccn2ncc(C(=O)Nc3ccc4[nH]c(C)cc(=O)c4c3)c2n1,> 99.5 µM
20,CCS(=O)(=O)c1cc(Cl)cc(CNS(=O)(=O)c2cccs2)c1,> 99.5 µM
21,O=C(Cc1cc(Cl)cc(Nc2ccc(Oc3ccccc3Cl)cc2)c1)Nc1cncc2ccccc12,2.49 µM
22,CC(C)(C)c1ccc(N(C(=O)CCC#N)C(C(=O)NCCc2cccc(F)c2)c2cccnc2)cc1 (stereo not given),3.8 µM
23,Cc1nc2sccn2c1CN(C)C(=O)c1cn2ccccc2n1,> 99.5 µM
24,O=C1NCC(C(=O)Nc2cnc3ccccn23)c2cc(Cl)ccc21 (stereo not given),5.93 µM
25,O=c1[nH]c2ccc(-c3csc(NCc4ccc(F)cc4)n3)cc2o1,> 99.5 µM

row,Compound,IC50
1,Cc1cc(I)ccc1Nc1cc(Cl)cc(CC(=O)Nc2cncc3ccccc23)c1,2.45 µM
2,O=C(Cc1cncc2ccccc12)Nc1cccc(Cl)c1,6.47 µM
3,CCc1ccc([N+](=O)[O-])cc1Nc1cc(Cl)cc(CC(=O)Nc2cncc3ccccc23)c1,1.71 µM
4,CC(C)(COP(=O)(O)OP(=O)(O)OC[C@H]1O[C@@H](n2cnc3c(N)ncnc32)[C@H](O)[C@@H]1OP(=O)(O)O)[C@@H](O)C(=O)NCCC(=O)NCCSC(=O)CCC(=O)O (stereo in doubt),> 99 µM
5,Cc1ccccc1C(C)N(C(=O)c1cocn1)C(C(=O)NCCc1cccc(F)c1)c1cccnc1 (stereo not given),> 99.5 µM
6,O=C(Cc1cc(Cl)cc(N[C@H](c2ccccc2)[C@@H](O)c2ccccc2)c1)Nc1cncc2ccccc12 (stereo in doubt),2.24 µM
7,O=C(Nc1ccc2nccnc2c1)c1csc2cncn12,> 99.5 µM
8,C[C@]1(C(=O)Nc2cncc3c2CCCC3)CNS(=O)(=O)c2ccc(Cl)cc21 (stereo in doubt),0.214 µM
9,Cc1cc(C)n2ncc(C(=O)Nc3ccc4ncsc4c3)c2n1,> 99.5 µM
10,Cc1cc(N)ncc1NC(=O)Cc1cccc(Cl)c1,> 99.5 µM
11,O=C(Nc1cncc2ccccc12)C1CCOc2c(OCc3cccnc3)cc(Cl)cc21 (stereo not given),24.9 µM and > 9.95 µM
12,O=C(Cc1cc(Cl)cc(Nc2c(Br)cncc2[N+](=O)[O-])c1)Nc1cncc2ccccc12,1.83 µM
13,O=c1[nH]c(-c2nnc[nH]2)nc2cc(-c3ccccc3Cl)sc12,> 99.5 µM
14,O=c1[nH]c2ccc(NC(=S)Nc3ccccc3Cl)cc2[nH]1,> 99.5 µM
15,Clc1scc(CN2CCC(c3ccn[nH]3)CC2)c1Cl,> 99.5 µM
16,COC1(CS(=O)(=O)N2Cc3ccc(Cl)cc3C3(CCN(c4cncc5ccccc45)C3=O)C2)CC1 (stereo not given),0.356 µM
17,CC(C)(C)c1ccc(O)c(Nc2cc(Cl)cc(CC(=O)Nc3cncc4ccccc34)c2)c1,6.5 µM
18,O=C(NCCc1cccc(F)c1)C(c1cccnc1)N(C(=O)c1cocn1)c1ccc(S(=O)(=O)C2CCCC2)cc1 (stereo not given),> 99.5 µM
19,N#CC1(CS(=O)(=O)N2Cc3ccc(Cl)cc3C3(CCN(c4cncc5cccc(Cl)c45)C3=O)C2)CC1 (stereo not given),7.79 µM
20,O=C(Cc1ccc(Cl)cc1)Nc1cncc2ccccc12,23.7 µM
21,COc1cc2nc(Cl)nc(Nc3cc(Cl)cc(CC(=O)Nc4cncc5ccccc45)c3)c2cc1OC,2.36 µM
22,Cc1ccc(S(=O)(=O)CNC(=O)C(c2cccnc2)N(C(=O)c2cocn2)c2ccc(C(C)(C)C)cc2)cc1 (stereo not given),62.9 µM
23,Cc1ccncc1NC(=O)CN(C)S(=O)(=O)c1cccc2cccnc12,> 99 µM
24,O=C(Nc1cncc2ccccc12)C1CCN(Cc2cnc[nH]2)c2ccc(Cl)cc21 (stereo not given),1.12 µM
25,Cc1ccncc1NC(=O)Cc1cc(Cl)cc(/C=C(/c2ccccc2)C(F)(F)F)c1,22.8 µM

row,Compound,IC50
1,CC1CN(C(=O)c2cc(=O)[nH]c3ccccc23)CCN1c1cccc(Cl)c1 (stereo not given),14.7 µM
2,COc1cc(Nc2cc(Cl)cc(CC(=O)Nc3cncc4ccccc34)c2)cc(OC)c1,1.96 µM
3,Cn1cncc1NC(=O)Cc1cccc(Cl)c1,93.9 µM
4,O=C(Cn1cn[nH]c1=O)NC1CCCCCC1c1ccccc1C(F)(F)F (stereo not given),> 99.5 µM
5,CC(C)NS(=O)(=O)N1Cc2ccc(Cl)cc2C(C(=O)Nc2cncc3ccccc23)C1 (stereo not given),0.195 µM
6,O=C(NCCNc1ccccc1)c1cc(=O)[nH]c2ccccc12,> 99.5 µM
7,Cc1nccn1-c1ccc(Nc2cc(Cl)cc(CC(=O)Nc3cncc4ccccc34)c2)cc1,2.48 µM
8,O=C(Cc1cc(Cl)cc(Cl)c1)Nc1cncc2ccccc12,1.37 µM
9,O=C(Nc1cncc2ccccc12)C12CCC(O1)c1ccc(Cl)cc12 (stereo not given),11.1 µM
10,N#Cc1cc(Cl)cc(NC(=O)Nc2cccnc2)c1,> 99 µM
11,COCOc1ccc(N(C(=O)c2cocn2)C(C(=O)NCCc2cccc(F)c2)c2cccnc2)cc1 (stereo not given),13.2 µM
12,O=CC(=O)N1CCN(Cc2cccc(Cl)c2)CC1,56.6 µM and 49.6 µM
13,C=CC(=O)N(c1ccc(C(C)(C)C)cc1)C(C(=O)NCCCSC)c1cccnc1 (stereo not given),25.5 µM
14,O=C(Cc1cc(Cl)cc(NC[C@H](O)c2ccc(O)cc2)c1)Nc1cncc2ccccc12 (stereo in doubt),1.64 µM
15,O=C(Nc1cc(=O)[nH]c2ccccc12)C1CCOc2ccc(Cl)cc21 (stereo not given),> 99.5 µM
16,O=C(CN1CC2(CCN(c3cncc4ccccc34)C2=O)c2cc(Cl)ccc2S1(=O)=O)NCC1CC1 (stereo not given),0.203 µM
17,CC(C)=CCC/C(C)=C/CC/C(C)=C/CC/C(C)=C/Cc1cc(O)cc2c1OC(=O)C2=C(C)C,> 99.5 µM
18,Cc1ccncc1NC(=O)C(CO)c1cccc(Cl)c1 (stereo not given),> 99.5 µM
19,CNC(=O)CN1Cc2ccc(Cl)cc2C(C(=O)Nc2cncc3ccc(C(C)(C)O)cc23)C1 (stereo not given),0.564 µM
20,O=C(Cc1cc(Cl)cc(Nc2ccc([N+](=O)[O-])cc2C(F)(F)F)c1)Nc1cncc2ccccc12,2.01 µM
21,Cc1nnc(CNc2ccc3nnc(-c4ccccc4)n3n2)o1,> 99.5 µM
22,O=C(Cc1cccc(Cl)c1)Nc1cnc2n1CCCC2,93.8 µM
23,CNC(=O)CN1CC2(CC(=O)N(c3cncc4ccccc34)C2=O)c2cc(Cl)ccc2C1=O (stereo not given),0.26 µM
24,NS(=O)(=O)c1ccc2c(c1)CN(CC1CCN(C(=O)CCl)CC1)CC2,19.5 µM
25,COc1ccc(Cl)cc1N1C(=O)CN(Cc2cc(=O)[nH]c3ccccc23)C1=O,> 99.5 µM

row,Compound,IC50
1,CNC(=O)CN1Cc2ccc(Cl)cc2C2(CCN(c3cncc4ccc(OC)cc34)C2=O)C1 (stereo not given),0.153 µM
2,O=C(O)c1ccc(CNCc2c[nH]nc2-c2cccs2)cc1,> 99.5 µM
3,O=C(NCCc1cccc(F)c1)C(c1cccnc1)N(C(=O)c1cocn1)c1cnn(-c2ccccc2)c1 (stereo not given),2.95 µM
4,Cc1nc2ccc(NS(=O)(=O)c3cccc4nonc34)cc2o1,> 99.5 µM
5,CC(C)(C)OC(=O)N(c1cc(Cl)cc(CC(=O)Nc2cncc3ccccc23)c1)C1CNC1,2.03 µM
6,COc1ccc2ncc(NC(=O)Cc3cccc(Cl)c3)n2c1,15.9 µM
7,O=C(Nc1cncc2ccccc12)[C@H]1CCNc2cc(Cl)c(Cl)cc21 (stereo in doubt),> 99.5 µM
8,CC(C)(C)c1ccc(N(C(=O)c2ccco2)C(C(=O)NCCc2cccc(F)c2)c2[nH]nc3ccccc23)cc1 (stereo not given),> 99.5 µM
9,N#CC1(CS(=O)(=O)N2Cc3ccc(Cl)cc3C(C(=O)Nc3cncc4ccccc34)C2)CCCC1 (stereo not given),0.079 µM and 0.0884 µM
10,Cc1ccncc1NC(=O)Cc1cc(Cl)cc(NS(C)(=O)=O)c1,21.8 µM
11,CNC(=O)CN1Cc2ccc(Cl)cc2[C@@]2(CCN(c3cncc4c3CCCC4)C2=O)C1 (stereo in doubt),0.235 µM
12,CC(C)N1CCCC(N2CCN(c3ccc4nccnc4n3)CC2)C1=O (stereo not given),> 99.5 µM
13,O=C(Cc1cc(Cl)cc(Nc2ccc3nccnc3c2Br)c1)Nc1cncc2ccccc12,1.97 µM
14,CS(=O)(=O)c1ccc2c(NC(=O)C3CN(CC(=O)NC4CCC4)C(=O)c4ccc(Cl)cc43)cncc2c1 (stereo not given),0.252 µM
15,CC1NC(=O)c2ccc(Cl)cc2C1C(=O)Nc1cncc2ccc(S(C)(=O)=O)cc12 (stereo not given),1.99 µM
16,Cc1nc2sccn2c1CN(C)C(=O)c1cnc2sccn2c1=O,> 99.5 µM
17,CC(C)c1nc(CN(C)c2cc(Cl)cc(CC(=O)Nc3cncc4ccccc34)c2)cs1,2.63 µM
18,Cn1cncc1CN(C(=O)CC1(C(=O)Nc2cncc3ccccc23)CCOc2ccc(Cl)cc21)C1CC1 (stereo not given),6.1 µM
19,O=C(Cc1cc(Cl)cc(N2CCN(C(=O)C3CC3)CC2)c1)Nc1cncc2ccccc12,2.01 µM
20,CCCOc1c(Cl)cc(C(=O)N2CCC(C3CCNC3)CC2)cc1OCC (stereo not given),> 99.5 µM
21,CC(CNC(=O)c1cnc2ccccn12)Nc1nc2ccccc2o1 (stereo not given),> 99.5 µM
22,O=C(c1cc(=O)[nH]c2ccccc12)N1CCN(c2ccccc2F)CC1,24 µM
23,O=C(Cc1cc(Cl)cc(Nc2c(Cl)cncc2Cl)c1)Nc1cncc2ccccc12,2.04 µM
24,COc1cccc2ncc(NC(=O)Cc3cccc(Cl)c3)n12,> 99.5 µM
25,O=C(CCl)N1CCCN(S(=O)(=O)c2cccs2)CC1,7.24 µM
